# Measurements taken from patent publication US20140107109A1, “AMINO-DIHYDROTHIAZINE AND AMINO-DIOXIDO DIHYDROTHIAZINE COMPOUNDS AS BETA-SECRETASE ANTAGONISTS AND METHODS OF USE” (Amgen Inc., priority 2012, published 2014).
# Legend:
# [1] = target: T1, Cathepsin D (Cat D) (Homo sapiens, UniProt P07339); assay: In vitro enzymatic Cathepsin D (Cat D) FRET assay; type: biochemical; conditions: read-out: CatD IC50
# T1 construct: Recombinant Cat D was expressed in CHO cells; made in house; host or cells: CHO cells
# T1 sequence (P07339 65-412, species assumed): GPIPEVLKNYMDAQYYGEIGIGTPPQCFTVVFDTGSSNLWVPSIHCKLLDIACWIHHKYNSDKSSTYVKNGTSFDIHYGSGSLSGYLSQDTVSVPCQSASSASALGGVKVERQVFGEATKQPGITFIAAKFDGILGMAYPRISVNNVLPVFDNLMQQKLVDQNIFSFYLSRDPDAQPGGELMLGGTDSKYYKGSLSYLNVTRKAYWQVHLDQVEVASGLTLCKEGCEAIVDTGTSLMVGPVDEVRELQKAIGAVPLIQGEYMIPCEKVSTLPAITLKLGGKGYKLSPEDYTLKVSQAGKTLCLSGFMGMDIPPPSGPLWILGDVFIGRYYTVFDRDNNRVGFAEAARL
# Outline: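 FRET read-out: a fluorophore/quencher-labelled peptide substrate is cleaved by 9 nM Cat D (recombinant, CHO-expressed) following a one-hour preincubation with inhibitor dilutions in DMSO. Tris buffer added to neutralize pH ends the reaction before fluorescence measurement.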
# [2] = system: Aβ40 in conditioned medium of cells stably expressing Amyloid Precursor Protein (APP); assay: In vitro BACE cell-based assay (HEK cell assay), Aβ40 sandwich ELISA; conditions: Homo sapiens, HEK293
# Outline: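 Aβ40 in conditioned medium was quantified by time-resolved fluorescence sandwich ELISA (pAb40 capture 3 h at 4 °C, biotin-6E10 detection 2 h at 4 °C) after 24 h compound exposure of APP-expressing cells. Doses spanned 10 points from 100 μM or 10 μM top, 0.1% DMSO; IC50 was derived from percent of control.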
# [3] = target: Beta Secretase enzyme (BACE1) (Homo sapiens, UniProt P56817); assay: In vitro enzymatic BACE FRET assay; type: biochemical; conditions: read-out: BACE1 FRET assay IC50
# Chain of Beta Secretase enzyme (BACE1) (P56817 46-501): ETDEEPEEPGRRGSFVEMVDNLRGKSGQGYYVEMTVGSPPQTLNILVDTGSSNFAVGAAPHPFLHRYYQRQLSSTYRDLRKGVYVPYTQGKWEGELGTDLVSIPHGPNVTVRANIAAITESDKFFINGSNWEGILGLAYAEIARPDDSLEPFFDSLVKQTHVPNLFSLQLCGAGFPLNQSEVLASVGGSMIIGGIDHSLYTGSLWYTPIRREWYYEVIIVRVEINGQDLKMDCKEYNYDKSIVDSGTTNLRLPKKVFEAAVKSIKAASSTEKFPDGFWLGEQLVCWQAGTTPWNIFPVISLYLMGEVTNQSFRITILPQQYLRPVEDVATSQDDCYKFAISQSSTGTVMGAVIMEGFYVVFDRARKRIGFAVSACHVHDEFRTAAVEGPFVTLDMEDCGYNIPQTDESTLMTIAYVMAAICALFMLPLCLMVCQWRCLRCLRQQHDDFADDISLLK
# Outline: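 Readout: dequenched fluorescence (ex 488 nm/[…]) after neutralizing with Tris buffer. Reactions, begun by adding 50 nM quenched peptide substrate spanning the BACE cleavage site, were incubated one hour at pH 4.2 in 0.05 M acetate with 100 uM genapol and 10% final DMSO.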
SMILES,IC50 [1],IC50 [2],IC50 [3]
"CC(C)c1c(C(=O)Nc2ccc(F)c([C@]3(CF)CS(=O)(=O)C(C)(C)C(N)=N3)c2)nc2ccc(Cl)cn12 [Example 395, N-(3-((3S)-5-amino-3-(fluoromethyl)-6,6-dimethyl-1,1-dioxido-3,6-dihydro-2H-1,4-thiazin-3-yl)-4-fluorophenyl)-6-chloro-3-(1-methylethyl)imidazo[1,2-a]pyridine-2-carboxamide]",822 µM,0.125 µM,0.0377 µM
"Cc1cc(Cl)cnc1C(=O)Nc1ccc(F)c([C@]23C[C@H]2S(=O)(=O)C(C)(C)C(N)=N3)c1 [Example 396, N-(3-((1R,6R)-4-amino-3,3-dimethyl-2,2-dioxido-2-thia-5-azabicyclo[4.1.0]hept-4-en-6-yl)-4-fluorophenyl)-5-chloro-3-methyl-2-pyridinecarboxamide]",187 µM,0.862 µM,0.00239 µM
"Cc1nc(F)c([C@]2(C)CS(=O)(=O)C(C)(C)C(N)=N2)cc1NC(=O)c1ccc(Cl)cn1 [Example 397, N-(5-((3R)-5-amino-3,6,6-trimethyl-1,1-dioxido-3,6-dihydro-2H-1,4-thiazin-3-yl)-6-fluoro-2-methyl-3-pyridinyl)-5-chloro-2-pyridinecarboxamide]",523 µM,3.25 µM,3.04 µM
"CC1(C)C(N)=N[C@](C)(c2cc(NC(=O)c3ccc(Cl)cn3)cnc2F)CS1(=O)=O [Example 398, N-(5-((3R)-5-amino-3,6,6-trimethyl-1,1-dioxido-3,6-dihydro-2H-1,4-thiazin-3-yl)-6-fluoro-3-pyridinyl)-5-chloro-2-pyridinecarboxamide]",183 µM,0.0114 µM,0.002 µM
"CC1(C)C(N)=N[C@](C)(c2cc(NC(=O)c3ccc(F)cn3)cnc2F)CS1(=O)=O [Example 399, N-(5-((3R)-5-amino-3,6,6-trimethyl-1,1-dioxido-3,6-dihydro-2H-1,4-thiazin-3-yl)-6-fluoro-3-pyridinyl)-5-fluoro-2-pyridinecarboxamide]",419 µM,0.0393 µM,0.0031 µM
"Cc1cc(OC(F)F)cnc1C(=O)Nc1cnc(F)c([C@]2(C)CS(=O)(=O)C(C)(C)C(N)=N2)c1 [Example 400, N-(5-((3R)-5-amino-3,6,6-trimethyl-1,1-dioxido-3,6-dihydro-2H-1,4-thiazin-3-yl)-6-fluoro-3-pyridinyl)-5-(difluoromethoxy)-3-methyl-2-pyridinecarboxamide]",156 µM,0.0089 µM,0.0014 µM
"COc1ccc(C(=O)Nc2cnc(F)c([C@]3(C)CS(=O)(=O)C(C)(C)C(N)=N3)c2)nc1 [Example 401, N-(5-((3R)-5-amino-3,6,6-trimethyl-1,1-dioxido-3,6-dihydro-2H-1,4-thiazin-3-yl)-6-fluoro-3-pyridinyl)-5-methoxy-2-pyridinecarboxamide]",757 µM,0.0179 µM,0.00398 µM
"CC1(C)C(N)=N[C@](C)(c2cc(NC(=O)c3cnc(OCC(F)(F)F)cn3)cnc2F)CS1(=O)=O [Example 402, N-(5-((3R)-5-amino-3,6,6-trimethyl-1,1-dioxido-3,6-dihydro-2H-1,4-thiazin-3-yl)-6-fluoro-3-pyridinyl)-5-(2,2,2-trifluoroethoxy)-2-pyrazinecarboxamide]",2780 µM,0.011 µM,0.0011 µM
"CC1(C)C(N)=N[C@](C)(c2cc(NC(=O)c3ccc(C#N)cn3)cnc2F)CS1(=O)=O [Example 403, N-(5-((3R)-5-amino-3,6,6-trimethyl-1,1-dioxido-3,6-dihydro-2H-1,4-thiazin-3-yl)-6-fluoro-3-pyridinyl)-5-cyano-2-pyridinecarboxamide]",233 µM,0.0146 µM,0.0019 µM
"CC1(C)C(N)=N[C@](C)(c2cc(NC(=O)c3ccc(C(F)F)cn3)cnc2F)CS1(=O)=O [Example 404, N-(5-((3R)-5-amino-3,6,6-trimethyl-1,1-dioxido-3,6-dihydro-2H-1,4-thiazin-3-yl)-6-fluoro-3-pyridinyl)-5-(difluoromethyl)-2-pyridinecarboxamide]",247 µM,0.0119 µM,0.011 µM
"CC1(C)C(N)=N[C@](CF)(c2cc(NC(=O)c3cnc(OCC(F)(F)F)cn3)ccc2F)CS1(=O)=O [Example 405, N-(3-((3S)-5-amino-3-(fluoromethyl)-6,6-dimethyl-1,1-dioxido-3,6-dihydro-2H-1,4-thiazin-3-yl)-4-fluorophenyl)-5-(2,2,2-trifluoroethoxy)-2-pyrazinecarboxamide]",576 µM,0.027 µM,0.0006 µM
"CC1(C)C(N)=N[C@](CF)(c2cc(NC(=O)c3ccc(C#N)cn3)ccc2F)CS1(=O)=O [Example 406, N-(3-((3S)-5-amino-3-(fluoromethyl)-6,6-dimethyl-1,1-dioxido-3,6-dihydro-2H-1,4-thiazin-3-yl)-4-fluorophenyl)-5-cyano-2-pyridinecarboxamide]",> 400 µM,0.0143 µM,0.00054 µM
"C=C(C)c1cc(Cl)cnc1C(=O)Nc1ccc(F)c([C@]2(CF)CS(=O)(=O)C(C)(C)C(N)=N2)c1 [Example 407, N-(3-((3S)-5-amino-3-(fluoromethyl)-6,6-dimethyl-1,1-dioxido-3,6-dihydro-2H-1,4-thiazin-3-yl)-4-fluorophenyl)-5-chloro-3-(1-methylethenyl)-2-pyridinecarboxamide]",440 µM,0.057 µM,0.00354 µM
"Cc1cc(Cl)cnc1C(=O)Nc1ccc(F)c([C@]2(CF)CS(=O)(=O)C(C)(C)C(N)=N2)c1 [Example 408, N-(3-((3S)-5-amino-3-(fluoromethyl)-6,6-dimethyl-1,1-dioxido-3,6-dihydro-2H-1,4-thiazin-3-yl)-4-fluorophenyl)-5-chloro-3-methyl-2-pyridinecarboxamide]",136 µM,0.0232 µM,0.0004 µM
"CC1(C)C(N)=N[C@](CF)(c2cc(NC(=O)c3ncc(Cl)cc3F)ccc2F)CS1(=O)=O [Example 409, N-(3-((3S)-5-amino-3-(fluoromethyl)-6,6-dimethyl-1,1-dioxido-3,6-dihydro-2H-1,4-thiazin-3-yl)-4-fluorophenyl)-5-chloro-3-fluoro-2-pyridinecarboxamide]",363 µM,0.0037 µM,0.0006 µM
"Cc1cc(OC(F)F)cnc1C(=O)Nc1ccc(F)c([C@@]2(CF)CS(=O)(=O)C3(CCC3)C(N)=N2)c1 [Example 411, N-(3-((7R)-9-amino-7-(fluoromethyl)-5,5-dioxido-5-thia-8-azaspiro[3.5]non-8-en-7-yl)-4-fluorophenyl)-5-(difluoromethoxy)-3-methyl-2-pyridinecarboxamide]",514 µM,> 15.6 µM,3.51 µM
"Cc1cc(OC(F)F)cnc1C(=O)Nc1ccc(F)c([C@]2(CF)CS(=O)(=O)C3(CCC3)C(N)=N2)c1 [Example 412, N-(3-((7S)-9-amino-7-(fluoromethyl)-5,5-dioxido-5-thia-8-azaspiro[3.5]non-8-en-7-yl)-4-fluorophenyl)-5-(difluoromethoxy)-3-methyl-2-pyridinecarboxamide]",78.9 µM,0.0082 µM,0.00063 µM
